Reference: patent US12186303B2, “Feed additive for cattle comprising n-acetyl-l-tryptophan as active ingredient” (CJ CHEILJEDANG CORPORATION, priority 2018, dated 2025)

System: Korean native steers
Assay: Complete blood cell count (CBC) under heat stress conditions
Type: in vivo, Korean native cattle
Conditions: for GRA (0-2.4) / HCT (23-33) / HGB (8.0-15.0) / LYM (2.5-7.5) / MCH (14-18) / MCHC (30-36) / MCV (40-60) / MON (0-0.84) / MPV (4.5-7.6) / PCT (0.15-0.40) / PDW (56-80) / PLT (100-800) / RBC (5.0-10.0) / RDW (16-20) / WBC (4.0-12.0): 0.1% NALT
Text: After grouping the animals by statistical analysis of initial body weights, the animals were bred in 1.0×1.5 m^2 individual pens during the experiment period. The feed was offered based on an amount of dry matter of daily total mixed ration (TMR) per head. After 7 days of an adaptation period for N-acetyl-L-tryptophan (NALT), a mixture of 0.1% N-acetyl-L-tryptophan (NALT) and the total mixed ration was fed to individual animals every morning at 8 a.m. for 6 weeks, and water was available ad libitum. Total amounts of L-tryptophan ingested by the control and the experimental group (NALT-treated group) by feeding NALT were 6.0 g/day/head and 18.2 g/day/head, respectively. The experiment was performed such that the NALT-treated group ingested 12.2 g/day/head more L-tryptophan than the control.
Meanwhile, results of growth performance analysis (body weight and average feed intake) and genetic analysis of loin tissue were obtained by statistically comparing and analyzing significant differences between the control and the NALT-treated group, and results of hematological analysis were obtained via statistical comparison and analysis depending on NALT treatment, experiment period (days), and interaction (treatment×days). These numerical values were expressed as average values, and a significance test was performed at the 5% level using Student's t-test by using a JMP 5.0 software package (SAS Institute Inc., Cary, NC, USA).
Blood samples were collected from a jugular vein of each sentinel animal before offering the feed at the starting day of the experiment (week 0), the mid-point of the experiment (week 5), and the final day of the experiment (week 10) and stored in a vacutainer (Becton Dickinson, Franklin Lakes, NJ, USA). Complete blood cell count (CBC) was performed using whole blood using a VetScan HM2 (Abaxis, Union City, CA, USA), and hematological properties were identified using serum with a biochemical autoanalyzer (FUJI DRI-CHEM 7000, Fujifilm, Tokyo, Japan). In addition, total protein (TP), albumin (ALB), creatinine phosphokinase (CPK), and blood urea nitrogen (BUN), which are related to blood protein metabolism, were analyzed; triglycerides (TG) and non-esterified fatty acid (NEFA), which are related to energy metabolism, were analyzed; and sodium (Na), chlorine (CI), and potassium (K), which are blood electrolytes, were analyzed.

All CBC test indicators, effect of treatment with 0.1% NALT: No statistically significant difference
Values of hematological indicators (CBC) relative to normal ranges: within normal ranges
GRA (0-2.4) (Day 0): 3.16 10^3/μL
HCT (23-33) (Day 0): 6.95%
HGB (8.0-15.0) (Day 0): 13.4 g/dL
LYM (2.5-7.5) (Day 0): 6.08 10^3/μL
MCH (14-18) (Day 0): 14.8 pg
MCHC (30-36) (Day 0): 38.3 g/dL
MCV (40-60) (Day 0): 38.8 fL
MON (0-0.84) (Day 0): 0.22 10^3/μL
MPV (4.5-7.6) (Day 0): 6.95 fL
PCT (0.15-0.40) (Day 0): 0.24%
PDW (56-80) (Day 0): 34.1%
PLT (100-800) (Day 0): 332 10^3/μL
RBC (5.0-10.0) (Day 0): 9.13 10^6/μL
RDW (16-20) (Day 0): 23.6%
WBC (4.0-12.0) (Day 0): 9.60 10^3/μL
GRA (0-2.4) (Day 35): 3.61 10^3/μL
HCT (23-33) (Day 35): 6.58%
HGB (8.0-15.0) (Day 35): 11.7 g/dL
LYM (2.5-7.5) (Day 35): 5.67 10^3/μL
MCH (14-18) (Day 35): 14.7 pg
MCHC (30-36) (Day 35): 37.1 g/dL
MCV (40-60) (Day 35): 40.0 fL
MON (0-0.84) (Day 35): 0.46 10^3/μL
MPV (4.5-7.6) (Day 35): 6.58 fL
PCT (0.15-0.40) (Day 35): 0.24%
PDW (56-80) (Day 35): 31.5%
PLT (100-800) (Day 35): 371 10^3/μL
RBC (5.0-10.0) (Day 35): 8.04 10^6/μL
RDW (16-20) (Day 35): 22.7%
WBC (4.0-12.0) (Day 35): 9.74 10^3/μL
GRA (0-2.4) (Day 70): 3.66 10^3/μL
HCT (23-33) (Day 70): 9.80%
HGB (8.0-15.0) (Day 70): 13.8 g/dL
LYM (2.5-7.5) (Day 70): 4.91 10^3/μL
MCH (14-18) (Day 70): 15.7 pg
MCHC (30-36) (Day 70): 37.1 g/dL
MCV (40-60) (Day 70): 42.5 fL
MON (0-0.84) (Day 70): 0.81 10^3/μL
MPV (4.5-7.6) (Day 70): 9.80 fL
PCT (0.15-0.40) (Day 70): 0.24%
PDW (56-80) (Day 70): 29.5%
PLT (100-800) (Day 70): 196 10^3/μL
RBC (5.0-10.0) (Day 70): 8.83 10^6/μL
RDW (16-20) (Day 70): 23.6%
WBC (4.0-12.0) (Day 70): 9.38 10^3/μL
SMILES: CC(=O)N[C@@H](Cc1c[nH]c2ccccc12)C(=O)O [NALT, N-acetyl-L-tryptophan]
